Data as given in patent US12060408B2, “Screening assays, modulators and modulation of activation of Receptor for Advanced Glycation End-products (RAGE)” (Monash University, priority 2017, dated 2024).

Assays:
[1] = Systolic BP measurement by tail-cuff plethysmography; format: in vivo, mouse; conditions: four-week infusion 1 μg/kg/min, both apoE KO and AGER/apoE DKO mice
Method: Systolic blood pressure was measured by tail-cuff plethysmography in conscious, pre-warmed mice using a computerized, non-invasive, tail-cuff system (Kent Scientific, USA). Animals were habituated to the device before measuring the pressures to ensure accurate measurements.

[2] = system: PMAEC; experiment: Static adhesion assay (labelled THP-1 cells on PMAEC monolayer); format: cell-based, mouse; conditions: PMAEC from C57bl6 mice, 1 μM
Method: Functional responsiveness to Ang II was determined in PMAEC using a static adhesion assay, in which PMAEC were seeded at 50,000 cells per well into six-well plates and allowed to grow to 70% confluency before treatment with 1 μM Ang II for 24 hours. Human THP-1 cells, which mimic monocytes and macrophages in the vasculature, were stained using CellVue Burgundy Fluorescent Cell labelling Kit (LICOR) as per manufacturer's instructions before seeding them onto the endothelial cell monolayers at 3×10^5 viable cells per well and incubated for 20 minutes at 37° C. The cells that had not adhered to the endothelial cell monolayer were removed and the wells washed with PBS before fixing with 4% formalin in PBS for 30 min. The adhesion of cells was then quantitated using the ODYSSEY infra-red imager (Licor). Additionally adhered cells were photographed at ×20 using light microscopy (Olympus CKX41).

[3] = system: RAGE ligand-dependent activation of RAGE; experiment: S100A8/A9-induced NFκB activation (p65 gene expression) in CHO cells expressing RAGE constructs; format: cell-based, human
Method: Generation of Transgenic Chinese Hamster Ovary Cells
100 ng of AT1R-Rluc8 construct was transfected into CHO cells using Lipofectamine 2000 (Thermo). Stable transfectants were selected using G418. AT1R—CHO were then transiently transfected with RAGE constructs using Lipofectamine 2000 (Invitrogen) and incubated for 16 h. The Homo sapiens AGER transcript variant 1 coding sequence (NM_001136) was synthesised and cloned between the NheI and XbaI sites of pCIneo (Promega) to generate the vector pCIneo-RAGE. This plasmid was then used to generate a library of mutant AGER clones (NP_001127). Primers 1-RAGE-SP-5′ and mCherry-XhoI-NotI-3′ were used to amplify the coding sequence of mCherry from the vector pmCherry-C1. The resultant PCR product was then used as template for a second PCR using primers 2-RAGE-SP-5′ and mCherry-XhoI-NotI-3′. The PCR product generated was digested with NheI and NotI and inserted between the NheI and NotI sites of pCIneo to generate pCIneo-SP-mCherry. The sequence of the insert was confirmed by DNA sequencing (Micromon, Monash University). […]
Cellular Expression of Pro-Inflammatory Markers and Mediators by Quantitative Real-Time PCR
After 2 hours of exposure to Ang II (1 μM) or the RAGE ligand, S100A8/A9 (5 ng/ml) cells were placed in Trizol, mRNA extracted and cDNA synthesized. Changes in the gene expression of the NFκB subunit, p65 (RelA) or NFκB-activated target genes (e.g ICAM-1, VCAM-1) were estimated by quantitative real-time RT-PCR, performed using the TaqMan system based on real-time detection of accumulated fluorescence (ABI Prism 7700, Perkin-Elmer Inc, PE Biosystems, Foster City, CA, USA). Gene expression was normalized to 18S mRNA and reported as fold change compared to the level of expression in untreated control mice/cells, which were given an arbitrary value of 1.
To measure the induction of NFκB activity by 1 μM Ang II, or 5 ng/ml of the RAGE-ligand S100A8/A9 as a signalling control, AT1R—CHO cells were transfected with 0.4 μg of plasmids encoding NFκB-SEAP or β-galactosidase (β-Gal) using Lipofectamine 2000 (Invitrogen) as per manufacturer's instructions. After 24 hours, cells transfected with each plasmid combination were then treated with Ang II (1 μM) or left untreated and incubated for 4 hours before cell supernatants and cell lysates were collected. Cell supernatants were analysed using a chemiluminescent SEAP reporter gene assay (Roche Applied Science) to detect SEAP production after treatment. To control for transfection efficiency, cell lysates were assayed for β-Gal using a commercially available kit (Promega).

[4] = biological target: T1, IQGAP-1 (Cricetulus griseus, UniProt A0A8C2MPD4); experiment: Pull-down on column coated with S391A-RAGE362-404, proteomic analysis; format: binding; conditions: lysate of CHO cells stably transfected with Hs-AT1R; NiNTA column; FIG. 11C
T1 construct: 5×10^7 CHO cells stably transfected with Hs-AT1R were lysed using RIPA buffer; endogenous in cells; host or cells: lysate of CHO cells stably transfected with Hs-AT1R
T1 sequence (A0A8C2MPD4 1-1657): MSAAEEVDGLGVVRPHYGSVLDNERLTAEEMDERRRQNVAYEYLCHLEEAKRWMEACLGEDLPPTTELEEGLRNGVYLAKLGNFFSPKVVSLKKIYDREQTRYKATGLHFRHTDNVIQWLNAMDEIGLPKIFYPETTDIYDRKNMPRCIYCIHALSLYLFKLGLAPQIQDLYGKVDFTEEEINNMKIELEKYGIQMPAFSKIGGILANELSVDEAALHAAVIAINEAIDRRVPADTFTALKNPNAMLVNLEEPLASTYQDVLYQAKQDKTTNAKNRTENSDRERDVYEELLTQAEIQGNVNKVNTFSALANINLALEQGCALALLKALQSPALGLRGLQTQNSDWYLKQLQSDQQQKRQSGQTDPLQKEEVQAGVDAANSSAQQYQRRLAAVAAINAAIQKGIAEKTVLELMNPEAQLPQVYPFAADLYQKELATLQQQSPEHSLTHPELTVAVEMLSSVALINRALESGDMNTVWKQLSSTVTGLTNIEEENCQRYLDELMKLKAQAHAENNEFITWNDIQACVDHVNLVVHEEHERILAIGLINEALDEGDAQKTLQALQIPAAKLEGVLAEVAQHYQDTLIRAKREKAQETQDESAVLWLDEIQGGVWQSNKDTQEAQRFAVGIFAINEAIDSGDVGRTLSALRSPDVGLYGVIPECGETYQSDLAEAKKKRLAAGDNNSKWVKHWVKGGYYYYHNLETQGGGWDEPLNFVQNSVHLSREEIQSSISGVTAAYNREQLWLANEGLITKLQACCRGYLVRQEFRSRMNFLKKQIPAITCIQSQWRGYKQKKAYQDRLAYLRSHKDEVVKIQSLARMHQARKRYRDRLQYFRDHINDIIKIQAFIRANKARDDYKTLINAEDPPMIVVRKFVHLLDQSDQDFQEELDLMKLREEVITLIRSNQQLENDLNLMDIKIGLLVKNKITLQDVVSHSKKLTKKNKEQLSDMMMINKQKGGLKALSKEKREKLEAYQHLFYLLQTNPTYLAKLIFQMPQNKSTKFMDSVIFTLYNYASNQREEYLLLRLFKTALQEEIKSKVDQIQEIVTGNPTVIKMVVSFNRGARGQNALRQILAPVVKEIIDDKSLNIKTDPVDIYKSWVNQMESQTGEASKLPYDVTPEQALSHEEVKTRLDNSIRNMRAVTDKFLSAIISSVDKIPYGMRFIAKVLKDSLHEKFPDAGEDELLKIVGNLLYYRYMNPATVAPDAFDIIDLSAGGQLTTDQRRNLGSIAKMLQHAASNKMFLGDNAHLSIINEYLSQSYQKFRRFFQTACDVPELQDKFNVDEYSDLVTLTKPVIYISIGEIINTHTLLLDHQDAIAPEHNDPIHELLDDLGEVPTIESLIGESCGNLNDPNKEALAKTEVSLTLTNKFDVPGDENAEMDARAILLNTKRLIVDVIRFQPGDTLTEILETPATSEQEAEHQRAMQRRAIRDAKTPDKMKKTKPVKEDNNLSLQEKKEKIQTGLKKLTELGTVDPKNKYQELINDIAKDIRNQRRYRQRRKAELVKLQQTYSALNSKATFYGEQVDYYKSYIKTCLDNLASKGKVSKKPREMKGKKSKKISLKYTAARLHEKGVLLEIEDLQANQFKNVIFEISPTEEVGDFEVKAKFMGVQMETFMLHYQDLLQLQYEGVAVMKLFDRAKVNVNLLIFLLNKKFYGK
Method: The TAT-Cherry-S391A-RAGE362-404 peptide and TAT-mCherry control peptide were bound to a gravity flow NiNTA column, and equilibrated using lysis buffer (50 mM Tris pH 7.5, 300 mM NaCl, 5 mM βB-mercaptoethanol, 10 mM imidazole. 5×10^7 CHO cells stably transfected with Hs-AT1R were lysed using RIPA buffer (1×PBS supplemented with 1% NP-40, 0.5% Na-deoxycholate with protease and phosphatase inhibitors), diluted to 50 ml in lysis buffer and passed over the Ni-NTA column twice by gravity flow. The 1 ml column was washed extensively (200 ml wash buffer-50 mM Tris pH 7.4, 300 mM NaCl, 5 mM β-mercaptoethanol, 20 mM imidazole). After washing, 2 ml of elution buffer (50 mM Tris pH 7.4, 300 mM NaCl, 5 mM β-mercaptoethanol, 250 mM imidazole) was applied to the column, and used to elute proteins that had bound to either the A peptide or TAT-mCherry control peptide. 1 ml of sample was delivered for proteomic analysis by Mass Spectroscopy. Venny 2.1.0 was used to generate lists of the proteins differentially bound to the two proteins.

| Substance | systolic blood pressure [1] | adhesion of labelled THP-1 cells to PMAEC monolayer [2] | inhibition of S100A8/A9-induced p65 expression ([3]; AT1R-CHO cells also expressing full length RAGE) | inhibition of RAGE ligand-dependent activation of wild-type RAGE (S100A8/A9) ([3]; summary statement, cell system not given) | association with IQGAP-1 (pull-down) [4] |
| --- | --- | --- | --- | --- | --- |
| angiotensin II (DRVYIHPF) [Ang II, cognate ligand of AT1R] | increased to a similar extent | increased adhesion | – | – | – |
| L362WQRRQRRGEERKAPENQEEEEERAELNQAEEPEAGESSTGGP404 (LWQRRQRRGEERKAPENQEEEEERAELNQAEEPEAGESSTGGP; listed as Homo sapiens) [S391A-RAGE362-404, S391A mutant RAGE cytosolic tail; non-functional substitute for RAGE] | – | – | inhibitory effect | inhibits | preferentially associates with IQGAP-1 |
